From ChEMBL document CHEMBL1127713, “Anti-HIV activity of N-(2,3-dihalogenopropyl)- and N-allyl-glycine containing pentapeptides” (Bioorg Med Chem Lett, 1994)
Converted amounts (≈) assume the structure as drawn. “And” between values parts separate entries of the source, which are not always exact repeats. Identical values can stand only once. Starred links: 1 amine or outer side, 2 acyl side, 3 side chain; linkers in the order of their positions; H or OH if unused. Non-standard residues stand in square brackets, D forms with d. Residues, ends and D or L forms follow the SMILES beside them. *: point of attachment. X2 = C=CCN([C@@H](C)C(=O)[*:2])[*:1]; X1 = O=C(CN(CC(Br)CBr)[*:1])[*:2]; X3 = O=C(CN(CC(Cl)CCl)[*:1])[*:2]; NAllylGly = C=CCNCC(=O)O; Boc = CC(C)(C)OC(=O)*

Assays:
[1] = target: Human immunodeficiency virus type 1 protease (Human immunodeficiency virus 1) (UniProt Q72874); assay: Inhibitory activity against HIV-1 Protease using Suc-TLNFPIS-4-AMC as substrate in fluorescence assay at 10e-5 concentration
[2] = target: Human immunodeficiency virus type 1 protease (Human immunodeficiency virus 1, UniProt Q72874); assay: Antiviral activity against HIV-1 in CEM cells.; assay type: functional, cell-based; settings: ccrf-cem
[3] = target: Human immunodeficiency virus type 1 protease (Human immunodeficiency virus 1) (UniProt Q72874); assay: Inhibitory activity against HIV-1 Protease using VSQNF(NO2)PIV as substrate in spectrophotometric assay at 10e-5 concentration
CCRF-CEM [4] = assay: Dose required for reduce the reverse transcriptase activity in infected cell supernatant; assay type: functional, cell-based; settings: Homo sapiens
[5] = Selectivity index between IC50 and EC50; assay type: functional
CCRF-CEM [6] = assay: Compound was tested for antiviral activity against HIV-1 in CEM cells; assay type: functional, cell-based; settings: Homo sapiens
CCRF-CEM [7] = assay: Compound was tested for antiviral activity against HIV-1 in CEM cells; Non active compound; assay type: functional, cell-based, Homo sapiens

Compound: C=CCN(CC(=O)N[C@H](C(=O)N[C@H](C(=O)OC)C(C)C)[C@@H](C)CC)C(=O)[C@H](Cc1ccccc1)NC(=O)[C@H](C)NC(=O)[C@H](C)NC(=O)[C@H](CO)NC(=O)OC(C)(C)C (Boc-SAAF[NAllylGly]IV-OMe)
- inhibition [1]: 0%
- EC50 [2]: Not Active
- inhibition [3]: 14% and 0%

Compound: CC[C@H](C)[C@H](NC(=O)CN(CC(Br)CBr)C(=O)[C@H](Cc1ccccc1)NC(=O)[C@H](C)NC(=O)OC(C)(C)C)C(=O)N[C@H](C(=O)OC)C(C)C (stereo partly specified) (Boc-AF[X1]IV-OMe)
- inhibition [1]: 0%
- EC50 (CCRF-CEM [4]): 200 µg/mL (≈ 244 µM)
- inhibition [3]: 3% and 0%
- Ratio [5]: > 4.5
- EC50 (CCRF-CEM [6]): 111 µg/mL (≈ 135 µM)

Compound: C=CCNCC(=O)N[C@H](C(=O)N[C@H](C(=O)OC)C(C)C)[C@@H](C)CC
- EC50 [2]: Not Active

Compound: C=CCN(C(=O)[C@H](Cc1ccccc1)NC(=O)[C@H](C)NC(=O)[C@H](C)NC(=O)[C@H](CO)NC(=O)OC(C)(C)C)[C@@H](C)C(=O)N[C@H](C(=O)N[C@H](C(=O)OC)C(C)C)[C@@H](C)CC (Boc-SAAF[X2]IV-OMe)
- EC50 [2]: Not Active

Compound: C=CCN(CC(=O)N[C@H](C(=O)N[C@H](C(=O)OC)C(C)C)[C@@H](C)CC)C(=O)[C@H](Cc1ccccc1)NC(=O)[C@H](C)NC(=O)OC(C)(C)C (Boc-AF[NAllylGly]IV-OMe)
- inhibition [1]: 0%
- EC50 (CCRF-CEM [4]): 10 µg/mL (≈ 15.2 µM)
- inhibition [3]: 1% and 4%
- Ratio [5]: 4.03
- EC50 (CCRF-CEM [6]): 8.15 µg/mL (≈ 12.4 µM)

Compound: C=CCN(CC(=O)N[C@H](C(=O)N[C@H](C(=O)OC)C(C)C)[C@@H](C)CC)C(=O)[C@H](Cc1ccccc1)NC(=O)OC(C)(C)C (Boc-F[NAllylGly]IV-OMe)
- inhibition [1]: 0%
- EC50 [2]: Not Active
- inhibition [3]: 10% and 13%

Compound: C=CCN(CC(=O)N[C@H](C(=O)N[C@H](C(=O)OC)C(C)C)[C@@H](C)CC)C(=O)[C@H](Cc1ccccc1)NC(=O)[C@H](C)NC(=O)[C@H](C)NC(=O)OC(C)(C)C (Boc-AAF[NAllylGly]IV-OMe)
- inhibition [1]: 0%
- EC50 [2]: Not Active
- inhibition [3]: 0% and 21%
- IC50 (CCRF-CEM [7]): Not Active

Compound: C=CCN(CC(=O)N[C@H](C(=O)N[C@H](C(=O)OC)C(C)C)[C@@H](C)CC)C(=O)OC(C)(C)C
- EC50 [2]: Not Active

Compound: CC[C@H](C)[C@H](NC(=O)CN(CC(Cl)CCl)C(=O)[C@H](Cc1ccccc1)NC(=O)[C@H](C)NC(=O)OC(C)(C)C)C(=O)N[C@H](C(=O)OC)C(C)C (stereo partly specified) (Boc-AF[X3]IV-OMe)
- inhibition [1]: 0%
- EC50 (CCRF-CEM [4]): 100 µg/mL (≈ 137 µM)
- inhibition [3]: 0% and 12%
- EC50 (CCRF-CEM [6]): > 100 µg/mL

Compound: C=CCN(C(=O)[C@H](Cc1ccccc1)NC(=O)OC(C)(C)C)[C@@H](C)C(=O)N[C@H](C(=O)N[C@H](C(=O)OC)C(C)C)[C@@H](C)CC
- inhibition [1]: 3%
- EC50 [2]: Not Active
- inhibition [3]: 0% and 7%

Compound: CC[C@H](C)[C@H](NC(=O)CN(CC(Cl)CCl)C(=O)[C@H](Cc1ccccc1)NC(=O)OC(C)(C)C)C(=O)N[C@H](C(=O)OC)C(C)C (stereo partly specified)
- inhibition [1]: 0%
- EC50 [2]: Not Active
- inhibition [3]: 0% and 2%

Compound: C=CCN(CC(=O)N[C@H](C(=O)N[C@H](C(=O)OC)C(C)C)[C@@H](C)CC)C(=O)[C@@H](N)Cc1ccccc1 (H-F[NAllylGly]IV-OMe)
- EC50 [2]: Not Active

Compound: C=CCN(C(=O)[C@H](Cc1ccccc1)NC(=O)[C@H](C)NC(=O)[C@H](C)NC(=O)OC(C)(C)C)[C@@H](C)C(=O)N[C@H](C(=O)N[C@H](C(=O)OC)C(C)C)[C@@H](C)CC (Boc-AAF[X2]IV-OMe)
- inhibition [1]: 1%
- EC50 [2]: Not Active
- inhibition [3]: 0%

Compound: C=CCN(C(=O)[C@H](Cc1ccccc1)NC(=O)[C@H](C)NC(=O)OC(C)(C)C)[C@@H](C)C(=O)N[C@H](C(=O)N[C@H](C(=O)OC)C(C)C)[C@@H](C)CC (Boc-AF[X2]IV-OMe)
- inhibition [1]: 0%
- EC50 (CCRF-CEM [4]): 60 µg/mL (≈ 89 µM)
- inhibition [3]: 0% and 9%
- Ratio [5]: > 2.51
- EC50 (CCRF-CEM [6]): 80 µg/mL (≈ 119 µM)

Compound: C=CCN(CC(=O)N[C@H](C(=O)N[C@H](C(=O)OC)C(C)C)[C@@H](C)CC)C(=O)[C@H](Cc1ccccc1)NC(=O)[C@H](C)N (H-AF[NAllylGly]IV-OMe)
- EC50 [2]: Not Active

Compound: CC[C@H](C)[C@H](NC(=O)CN(CC(Br)CBr)C(=O)[C@H](Cc1ccccc1)NC(=O)OC(C)(C)C)C(=O)N[C@H](C(=O)OC)C(C)C (stereo partly specified)
- inhibition [1]: 0%
- EC50 [2]: Not Active
- inhibition [3]: 8% and 10%
